The source of these data is patent US10233142B2, “Metabolites of (1R-trans)-N-[[2-(2,3-dihydro-4-benzofuranyl)cyclopropyl]methyl]propanamide” (Vanda Pharmaceuticals, Inc., priority 2012, dated 2019).

Structures are written as SMILES.

The data set can be described thus: 14C-radiolabeled Tasimelteon administered to healthy male subjects; HPLC radio-chromatography of plasma, urine and feces. The format is in vivo, human. To be noted: for share of the radioactivity of the administered dose in urine: 0-72 h urine samples; for share of the radioactivity of the administered dose in feces: fecal samples; for feces (0-120 h) (% dose) / plasma (% AUC) / urine (0-72 h) (% dose) / total excreta (% dose): healthy male subjects, 100 μCi/100 mg 14C-Tasimelteon; for plasma (% AUC): plasma 0.5-24 h; for total excreta (% dose): urine plus feces; for share of the total plasma radioactivity: plasma samples. Here is the method:
^14C-radiolabeled (1R-trans)-N-[[2-(2,3-dihydro-4-benzofuranyl)cyclopropyl]methyl]propanamide was administered to healthy male subjects at a dosage of 100 μCi/100 mg. Plasma, urine, and fecal samples were then collected from subjects at predetermined time intervals following administration (0.5 h, 1 h, 2 h, 8 h, and 24 h for plasma; 0-6 h, 6-12 h, 12-24 h, and 24-72 h for urine; and 0-24 h, 24-48 h, and 48-120 h for feces). Plasma and fecal samples were subjected to methanol extraction to remove proteins. All samples were centrifuged to remove solids prior to HPLC radio-chromatography. Radioactivity in each fraction was determined by Packard TopCount® NXT™ Microplate Scintillation and Luminescence Counter technology. Selected urine, plasma, and fecal extracts were analyzed by LC/MS, coupled with a radioactivity monitor.
The proportionate presence of (1R-trans)-N-[[2-(2,3-dihydro-4-benzofuranyl)cyclopropyl]methyl]propanamide and the M9 and M11 metabolites in plasma, urine, and feces of the subjects is shown below in Table 1.

As for `CCC(=O)NC[C@@H]1C[C@H]1c1cccc(O)c1CC(=O)O` [M9], the “share of the radioactivity of the administered dose in urine” value (shortened to “share of the radioactivity … in urine”) is approximately 30%, the “share of the radioactivity of the administered dose in feces” value is “minor fecal metabolites”, the “feces (0-120 h) (% dose)” value stood at 0.85 % dose and the “plasma (% AUC)” value was 19.79 % AUC. Besides, the “urine (0-72 h) (% dose)” value is listed as 29.69 % dose, the “total excreta (% dose)” value came to 30.54 % dose and the “share of the total plasma radioactivity” value is approximately 20%.
`CCC(=O)NC[C@@H]1C[C@H]1c1cccc(O)c1CCO` [M11]: the “share of the radioactivity … in urine” value was “Neither unchanged Tasimelteon nor metabolite M11 were found”, the “feces (0-120 h) (% dose)” value was “not detected”, the “plasma (% AUC)” value is on record as 3.56 % AUC and the “urine (0-72 h) (% dose)” value is “not detected”. Besides, the “total excreta (% dose)” value is reported as “not detected” and the “share of the total plasma radioactivity” value is recorded as “approximately 3.5%”.
Consider `CCC(=O)NC[C@@H]1C[C@H]1c1cccc2c1CCO2` [Tasimelteon, (1R-trans)-N-[[2-(2,3-dihydro-4-benzofuranyl)cyclopropyl]methyl]propanamide], for which the “share of the radioactivity … in urine” value is recorded as “Neither unchanged Tasimelteon nor metabolite M11 were found”, the “share of the radioactivity of the administered dose in feces” value is reported as “minor fecal metabolites”, the “feces (0-120 h) (% dose)” value is reported as 0.04 % dose and the “plasma (% AUC)” value came to 8.22 % AUC. Moreover, the “urine (0-72 h) (% dose)” value is listed as “not detected”, the “total excreta (% dose)” value is recorded as 0.04 % dose and the “share of the total plasma radioactivity” value is listed as “approximately 8%”.
